Test results reported in patent publication US9926284B2, “Substituted N-(1,2,4-triazol-3-yl)Arylcarboxamide compounds and their use as herbicides” (BASF SE, priority 2013, dated 2018).
Marks after values point to notes of the source that are not given here.

Experiments:
Format in all cases: in vivo
Agrostis spica-venti = test: greenhouse pre-emergence treatment, herbicidal activity; details: pre-emergence (values labeled *), 1000 g/ha, scale 0 to 100
Source text: (§1) The seeds of the test plants were sown separately for each species. For the pre-emergence treatment, the active ingredients, which had been suspended or emulsified in water, were applied directly after sowing by means of finely distributing nozzles. The containers were irrigated gently to promote germination and growth and subsequently covered with transparent plastic hoods until the plants had rooted. This cover caused uniform germination of the test plants, unless this has been impaired by the active ingredients. Depending on the species, the plants were kept at 10-25° C. or 20-35° C. The test period extended over 2 to 4 weeks. During this time, the plants were tended, and their response to the individual treatments was evaluated. Evaluation was carried out using a scale from 0 to 100. 100 means no emergence of the plants, or complete destruction of at least the aerial moieties, and 0 means no damage, or normal course of growth. A good herbicidal activity is given at values of at least 70 and a very good herbicidal activity is given at values of at least 85. The plants used in the greenhouse experiments belonged to the following species: [table]

Amaranthus retroflexus [1] = test: as above; details: pre-emergence (values labeled *), 1000 g/ha, scale 0 to 100
Source text: as §1

Echinochloa crus-galli [2] = test: as above; details: pre-emergence (values labeled *), 1000 g/ha, scale 0 to 100
Source text: as §1

Setaria faberi = test: as above; details: pre-emergence (values labeled *), 1000 g/ha, scale 0 to 100
Source text: as §1

Abutilon theophrasti [3] = test: greenhouse post-emergence treatment, herbicidal activity; details: 1000 g/ha, scale 0 to 100
Source text: (§2) The seeds of the test plants were sown separately for each species. For the post-emergence treatment, the test plants were first grown to a height of 3 to 15 cm, depending on the plant habit, and only then treated with the active ingredients which had been suspended or emulsified in water. For this purpose, the test plants were either sown directly and grown in the same containers, or they were first grown separately as seedlings and transplanted into the test containers a few days prior to treatment. Depending on the species, the plants were kept at 10-25° C. or 20-35° C. The test period extended over 2 to 4 weeks. During this time, the plants were tended, and their response to the individual treatments was evaluated. Evaluation was carried out using a scale from 0 to 100. 100 means no emergence of the plants, or complete destruction of at least the aerial moieties, and 0 means no damage, or normal course of growth. A good herbicidal activity is given at values of at least 70 and a very good herbicidal activity is given at values of at least 85. The plants used in the greenhouse experiments belonged to the following species: [table]

Amaranthus retroflexus [4] = test: as above; details: 1000 g/ha, scale 0 to 100
Source text: as §2

Avena fatua = test: as above; details: 1000 g/ha, scale 0 to 100
Source text: as §2

Echinochloa crus-galli [5] = test: as above; details: 1000 g/ha, scale 0 to 100
Source text: as §2

Setaria viridis = test: as above; details: 1000 g/ha, scale 0 to 100
Source text: as §2

Abutilon theophrasti [6] = test: greenhouse pre-emergence treatment, herbicidal activity; details: pre-emergence (values labeled *), 1000 g/ha, scale 0 to 100
Source text: as §1

Alopecurus agrestis = test: greenhouse post-emergence treatment, herbicidal activity; details: 1000 g/ha, scale 0 to 100
Source text: as §2

Row | SMILES | damage [%] in weed species IV (APESV) (Agrostis spica-venti) | damage [%] in weed species III (AMARE) (Amaranthus retroflexus [1]) | damage [%] in weed species VI (ECHCG) (Echinochloa crus-galli [2]) [%] | damage [%] in weed species VII (SETFA) (Setaria faberi) | damage [%] in weed species I (ABUTH) (Abutilon theophrasti [3]) [%] | damage [%] in weed species III (AMARE) (Amaranthus retroflexus [4]) | damage [%] in weed species V (AVEFA) (Avena fatua) [%] | damage [%] in weed species VI (ECHCG) (Echinochloa crus-galli [5]) [%] | damage [%] in weed species VIII (SETVI) (Setaria viridis) [%] | damage [%] in weed species I (ABUTH) (Abutilon theophrasti [6]) [%] | damage [%] in weed species II (ALOMY) (Alopecurus agrestis) [%]
1 | CCn1cnnc1NC(=O)c1c(F)cc(Cl)c(S(C)(=O)=O)c1Cl [cpd. 2, 2,4-dichloro-N-(4-ethyl-1,2,4-triazol-3-yl)-6-fluoro-3-methyl-sulfonyl-benzamide] | 80* % | 95% | 98 | 85* % | 100 | 75% | 75 | 90 | 100 |  | 
2 | CCn1cnnc1NC(=O)c1c(F)cc(Cl)c(SC)c1Cl [cpd. 3, 2,4-dichloro-N-(4-ethyl-1,2,4-triazol-3-yl)-6-fluoro-3 methyl-sulfanyl-benzamide] |  | 90% | 75 | 70* % | 100 | 100% | 80 | 98 | 100 | 90 | 
3 | CSc1c(Cl)cc(F)c(C(=O)Nc2nncn2C)c1Cl [cpd. 4, 2,4-dichloro-6-fluoro-3-methylsulfanyl-N-(4-methyl-1,2,4-triazol-3-yl)benzamide] | 70* % | 100, 100* % |  | 70* % | 100 | 100, 100* % | 90 | 95 | 100 | 70 | 90
4 | Cn1cnnc1NC(=O)c1c(F)cc(Cl)c(S(C)(=O)=O)c1Cl [cpd. 5, 2,4-dichloro-6-fluoro-3-methylsulfonyl-N-(4-methyl-1,2,4-triazol-3-yl)benzamide] | 70* % | 85% | 80 | 85* % | 98 | 90% |  | 98 | 95 | 80 | 85
